Where two headings read alike, the source gives them in different places.
Experiments:
male SD rats [1] = test: Pharmacological test against hypercholesterolemia (high cholesterol diet rats); format: in vivo; conditions: high cholesterol diet for 7 days, oral 200 mg/kg/day for 7 consecutive days, blood after 20 hours of fasting; for Reduction Percentage Cholesterol in beta-lipoprotein: beta-lipoprotein-cholesterol (heparin-calcium precipitation); for Reduction Percentage Cholesterol: serum cholesterol
Excerpt: Three groups of male SD rats each weighing about 150g, each group consisting of five rats, were used as test animals and one group consisting of 10 rats was used as control. All animals were fed a high cholesterol diet consisted of 1% cholesterol, 0.2% sodium cholate, 5% olive oil and commercial diet up to total 100% for 7 days. The test compounds of the present invention and clofibrate, as a medicine for comparison, were respectively dissolved or dispersed in an aqueous 1% solution of CMC so that the volume of the solution or dispersion administered each time to an animal was 0.5 ml/l00g body weight, and the solution or dispersion was orally administered so that the amount of administration each time of each pyrazole derivative or of clofibrate was 200 mg/kg body weight. Administration was carried out once a day for 7 consecutive days. Water was taken ad lib. After 20 hours of fasting from the last administration, a blood sample was taken from each animal by amputation of the carotid artery, and the serum separated was frozen until the analysis of cholesterol shown as follows:
The content of serum cholesterol was determined by the above-mentioned method. The beta-lipoprotein- cholesterol was determined by "heparin-calcium precipitation method". The reduction percentage of cholesterol in serum and beta-lipoprotein were calculated in the same manner as above.

male SD rats [2] = test: Pharmacological test against hypertriglyceridemia (fructose-loaded rats, serum lipid analysis); format: in vivo; conditions: Rattus norvegicus, rats given aqueous 10% fructose for 2 days, oral, three doses, total dose 300 mg/kg as free carboxylic acid (total dose 300, esters 324-329 mg/kg), blood 48 hours after start
Excerpt: Seven groups of male SD rats, each group consisting of 6 animals, were used as test animals and one group consisting of 12 animals was used as a control. The test groups were made hypertriglyceridemic by administering aqueous 10% by weight solution of fructose for 2 days, while the animals of the control group were given tap water. The administration to the test groups of six pyrazole derivatives and of nicotinic acid was as follows:
Each pyrazole derivative and nicotinic acid was separately dissolved or dispersed in an aqueous 1% solution of carboxymethylcellulose (CMC) at a predetermined concentration, and the thus prepared solution or dispersion was orally administered in three doses, each dose having a volume of 0.5 ml/100 g body weight, a first dose just after the commencement of the test, a second dose 24 hours after the first dose, and a third dose 18 hours after the second dose. The total dosage of each compound was such that each animal received 300 mg/kg of each compound as free carboxylic acid. The rats of the control group were given the aqueous l% solution of CMC only, in three doses at the same intervals as the test groups. All the groups were fed with the same diet during the test period.
After 48 hours of the commencement of the test, a blood sample was collected from each animal by amputation of the carotid artery, and serum was separated from the blood sample and frozen to be kept until lipid analysis.
Serum triglyceride was determined by Acetylacetone Method, and the reduction percentage of lipid was calculated on the basis of the following formula: [formula] wherein the reduction percentage is the average for the test animals in each group.
The content of serum cholesterol was determined by an enzymatic method using cholesteroloxidase, and the reduction percentage of cholesterol was calculated according to the following formula: [formula]

Acute toxicity, oral = conditions: mouse, in vivo, male ICR mice, in aqueous 1% CMC, roughly calculated from mortalities at 2.5 and 5.0 g/kg body weight
Experimental: The acute toxicity of the present pyrazole derivatives to mammals was determined by the following method.
Male ICR mice of body weight 21 to 25 g were divided into several groups each consisting of 8 animals and were fasted for 17 to 18 hours and then orally given a pyrazole derivative or nicotinic acid dissolved or dispersed in an aqueous 1% CMC solution at a rate of 0.2 ml/10 g body weight. The administered amount of each compound was 2.5 g/kg body weight or 5.0 g/kg, and from the mortalities at both levels, LD50 was roughly calculated and compared with LD50 of nicotinic acid.

[3] = serum cholesterol, read-out: Reduction Percentage Cholesterol
[4] = serum triglyceride, read-out: Reduction Percentage Triglyceride

Row | SMILES | Reduction Percentage Cholesterol in beta-lipoprotein (male SD rats [1]) | Reduction Percentage Cholesterol (male SD rats [1]) | inhibition in vivo at 300 mg/kg (male SD rats [2]; [3]) | inhibition in vivo at 300 mg/kg (male SD rats [2]; [4]) | LD50 (Acute toxicity, oral)
1 | CCCCCCCCCCCCCc1cc(C(=O)O)nn1C [1-methyl-5-n-tridecylpyrazole-3-carboxylic acid] | 57.3 | 60.1 | 61.2% | 75.9% | 
2 | CCCCCCCCCCCCCc1cc(C(=O)NCC(=O)OCC)n[nH]1 [3-N-ethoxycarbonylmethylcarbamoyl-5-n-tridecylpyrazole] | 32.7 | 48.6 | 34.8% | 81.4% | 
3 | CCCCCCCCCCCCCc1cc(CO)n[nH]1 [3-hydroxymethyl-5-n-tridecylpyrazole] | 25.2 | 52.7 | 55.8% | 78.2% | 
4 | CCCCCCCCCCCCCCCCCc1cc(C(=O)O)n[nH]1 [5-n-heptadecylpyrazole-3-carboxylic acid] |  |  | 24.5% | 30.5% | 
5 | CCCCCCCCCCCCCCCc1cc(C(=O)O)n[nH]1 [5-n-pentadecylpyrazole-3-carboxylic acid] |  |  | 32.1% | 62.8% | 
6 | CCCCCCCCCCCCCc1cc(C(=O)O)n[nH]1 [5-n-tridecylpyrazole-3-carboxylic acid] | 54.3 | 45.2 | 59.8% | 76.4% | 
7 | O=C(O)c1cccnc1 [Nicotinic acid, reference compound] |  |  | 16.4% | 24.1% | 4500 mg/kg
8 | CCCCCCCCCCCCCCCCCc1cc(C(=O)OCC)n[nH]1 [ethyl 5-n-heptadecylpyrazole-3-carboxylate] |  |  | 32.9% | 35.2% | 
9 | CCCCCCCCCCCCCCCc1cc(C(=O)OCC)n[nH]1 [ethyl 5-n-pentadecylpyrazole-3-carboxylate] |  |  | 34.1% | 67.8% | 
10 | CCCCCCCCCCCCCc1cc(C(=O)OCC)n[nH]1 [ethyl 5-n-tridecylpyrazole-3-carboxylate] |  |  | 65.1% | 88% | 
